Converted amounts (≈) assume the structure as drawn. “And” between values parts separate entries of the source, which are not always exact repeats. Equal entries are not always repeated. Where two headings read alike, the source gives them in different places.
How the values were obtained:
[1] = system: Caco-2 cells; experiment: Caco-2 permeability; type: in vitro ADME; settings: apical to basolateral
From the text: (§1) page 5: Running title: PreclinicalPK -PD of antimalarials 73 to high through put form at using in- house standard assa y protocols that are described in the 74 literature. 75 (a)HT-Equilibrium solubilit y at pH 6.8( 1); (b)Parallel Artificial Membrane P ermeability Assa y 76 expressed in % fraction absorbed (FA) ( 2,3 ); (c)Apparent permeability from apical to […] 78 tested; (d)intrinsic clearance in mouse liver micro somes ex pressed as µ L/ min/mg protein, in 79 the presen ce of liver enzym es ( 6); (e)Mous e plasm a protein binding using rapid equilibrium […] 81 82 83 84 85 86 87 88 89 90 91 92 93 94 95 96 97 98 5

[2] = Intrinsic clearance in mouse liver microsomes; type: in vitro ADME; settings: per mg protein
From the text: as §1

[3] = RBC to plasma partitioning; type: in vitro ADME; settings: mean from 1 µM & 10 µM
From the text: (§2) page 5: Running title: PreclinicalPK -PD of antimalarials 73 to high through put form at using in- house standard assa y protocols that are described in the 74 literature. […] 81 82 83 84 85 86 87 88 89 90 91 92 93 94 95 96 97 98 5

[4] = In vivo PK after single p.o. and i.v. dosing in CD-1 mice; design: species or system female CD-1 mice; settings: for AUC(0-t): read-out: AUC0–24
Experimental: The Institutional Animal Care and Use Committee (IACUC) of the Novartis Institute for Tropical Diseases (NITD), registered with the Agri-Food and Veterinary authority (AVA), Government of Singapore, reviewed and approved all animal experimental protocols. […] The mice were allowed to acclimate before the initiation of the experiments. Feed and water were given ad libitum. […] The blood samples from the mice were collected at 0.02 (for i.v. only), 0.08, 0.25, 0.5, 1, 2, 4, 8, 16, and 24 h postdosing. The dose proportionality studies were conducted with KAE609. […] Additional samples were collected at 32 h and 48 h postdose for the 1- and 5-mg/kg dose groups and up to 72 h postdose for the 100-mg/kg dose group. Groups of three mice were used for each time point. Blood was centrifuged at 13,000 rpm for 7 min at 4°C, and plasma was harvested and stored at -20°C until analysis. […] After vortexing and centrifuging the mixture, the supernatant was removed and 5 μl of sample analyzed. Analyte quantitation was performed by high-performance liquid chromatography coupled with tandem mass spectrometry (LC-MS/MS). […] Instrument control and data acquisition were performed using the Applied Biosystems software Analyst 1.4.2. […] Multiple-reaction monitoring (MRM) was combined with optimized MS parameters to maximize detection specificity and sensitivity. The most intense MRM transitions [338.3/295.1 for (+)-1, 370.1/327.0 for (+)-2, 370.0/326.9 for (+)-3, 354.1/310.8 for (+)-4, 354.1/311.2 for (+)-5, 372.1/329.1 for (+)-6, 388.0/331.8 for (+)-7, 372.1/316.1 for (-)-6, and 388/332 for (-)-7] were used for quantitation. Most compounds were analyzed using electrospray ionization in the negative mode, except (+)-1, which was analyzed using positive mode. The recovery of the compounds from plasma was good and consistent across the concentration range studied. The lower limits of quantification for different compounds ranged from 1.3 to 70 ng/ml in plasma. A calibration curve was freshly prepared and analyzed with every set of study samples. Intraday variability was established with triplicate quality control samples at three concentration levels. The results were accepted if relative standard deviation was <15%. The mean values of the compound concentrations in plasma were obtained from three animals at each time point and plotted against time to generate concentration-time profiles. […] The oral bioavailability (F) was calculated as the ratio between the area under the concentration-time curve from 0 to infinity (AUC0-∞) following oral administration and the AUC0-∞ following intravenous administration corrected for dose (F = […].).

[5] = system: P. berghei GFP ANKA PbGFPCON; experiment: In vitro (ex vivo) P. berghei maturation assay; type: cell-based, Plasmodium berghei
Experimental: For the in vitro (ex vivo) P. berghei maturation assays ([38]), heparinized blood from infected mice (P. berghei GFP ANKA malaria strain PbGFPCON, a donation from A. P. Waters and C. J. Janse, Leiden University, Leiden, the Netherlands) ([39]) was washed with 9 ml of hypoxanthine-free culture medium and diluted with hypoxanthine-free culture medium and red blood cells (RBCs) from uninfected mice to a hematocrit of 5% and a parasitemia of 0.3%. Serial compound dilutions were prepared in DMSO and distributed as described above. The infected erythrocytes (0.3% final parasitemia and 2.5% final hematocrit) were added into the wells. After the plates were incubated for 16 h, 0.25 μCi of [^3H]hypoxanthine was added per well, and the plates were incubated for an additional 8 h. The parasites were harvested, and the in vitro (ex vivo) P. berghei IC50, IC90, and IC99 values were determined as described above.

[6] = Mouse plasma protein binding, rapid equilibrium dialysis; type: in vitro ADME
From the text: as §1

[7] = system: P. falciparum NF54; experiment: In vitro [3H]hypoxanthine incorporation assay, P. falciparum NF54; type: cell-based, Plasmodium falciparum; settings: for IC50: 16 h + 8 h incubation, read-out: IC50 (mean ± SD) for P. falciparum NF54 (n = 3)
Experimental: Human erythrocytes served as the host cells. In vitro antimalarial activity was measured using the [^3H]hypoxanthine incorporation assay ([36]) with strain NF54 of P. falciparum (obtained from Hoffmann-LaRoche Ltd.). The compounds were dissolved in dimethyl sulfoxide (DMSO) at a concentration of 10 mM, diluted in hypoxanthine-free culture medium, and titrated in duplicate over a 64-fold range in 96-well plates. […] The parasites were harvested onto glass fiber filters, and radioactivity was measured using a BetaPlate liquid scintillation counter (Wallac, Zurich, Switzerland). All assays were repeated at least three times. The results were recorded and expressed as a percentage of the untreated controls. […] In addition, for the PK-PD analysis of KAE609, an IC99 value was determined by transforming the data from a scintillation counter (Anscombe transformation) to account for Poissonian measurement error. […] Each of the three replicates was performed on a distinct 96-well plate. This has been accounted for in the fitting procedure by means of a Bayesian hierarchical model. The software used for parameter inference was Stan ([37]).

[8] = HT-equilibrium solubility; type: physicochemical; settings: pH 6.8, HT-equilibrium solubility
From the text: as §2

[9] = oral 25 mg/kg vs i.v. 5 mg/kg, CD-1 mice
[10] = single oral dose 25 mg/kg, CD-1 mice
[11] = single oral dose 25 mg/kg, CD-1 mice, plasma
[12] = 16 h + 8 h incubation, read-out: IC50 (mean ± SD) for P. berghei GFP ANKA PbGFPCON (n = 3)
[13] = oral 1.5–105 mg/kg, CD-1 mouse, power regression model

C[C@H]1Cc2c([nH]c3ccc(F)cc23)[C@@]2(N1)C(=O)Nc1ccc(Cl)cc12 [(+)-4]
Caco-2 Papp (A-B) [1]: 7.66 10-6 cm/sec
Hepatic CLint in mouse liver microsomes [2]: 330 µL/min/mg
RBC to Plasma Ratio [3]: 0.62
CL ([4]; i.v. 5 mg/kg, CD-1 mice): 24.0 mL/min/kg
Vss ([4]; i.v. 5 mg/kg, CD-1 mice): 1.9 L/kg
t1/2 (i.v.) ([4]; i.v. 5 mg/kg, CD-1 mice): 4.7 h
F (oral bioavailability) [4, 9]: 26%
AUC0–24 [4, 10]: 3900 ng·h/mL
Tmax [4, 10]: 0.25 h
t1/2 (oral) [4, 10]: 5.6 h
Cmax [4, 11]: 1000 ng/mL
IC50 [5, 12]: 0.104 ± 0.053 µM
Mouse PPB [6]: 98.8%
IC50 [7]: 0.0059 ± 0.0009 µM
Solubility [8]: 137 µM (≈ 48.7 µg/mL)

C[C@H]1Cc2c([nH]c3cc(F)ccc23)[C@@]2(N1)C(=O)Nc1ccc(Cl)cc12 [(+)-5]
Caco-2 Papp (A-B) [1]: 4.33 10-6 cm/sec
Hepatic CLint in mouse liver microsomes [2]: 26 µL/min/mg
RBC to Plasma Ratio [3]: 1.18
CL ([4]; i.v. 5 mg/kg, CD-1 mice): 11.8 mL/min/kg
Vss ([4]; i.v. 5 mg/kg, CD-1 mice): 1.6 L/kg
t1/2 (i.v.) ([4]; i.v. 5 mg/kg, CD-1 mice): 3.8 h
F (oral bioavailability) [4, 9]: 47%
AUC0–24 [4, 10]: 17700 ng·h/mL
Tmax [4, 10]: 0.25 h
t1/2 (oral) [4, 10]: 4.0 h
Cmax [4, 11]: 3100 ng/mL
IC50 [5, 12]: 0.088 ± 0.026 µM
Mouse PPB [6]: 98.5%
IC50 [7]: 0.0043 ± 0.0004 µM
Solubility [8]: 131 µM (≈ 46.6 µg/mL)

C[C@H]1Cc2c([nH]c3cc(Cl)c(F)cc23)[C@@]2(N1)C(=O)Nc1ccc(Cl)cc12 [(+)-7 (KAE609)]
microsomal CLint ([2]; mouse, liver microsomes, read-out: Hepatic CLint in mouse liver microsomes): 28 µL/min/mg
Vd ([4]; female, mouse, plasma, iv, i.v. 5 mg/kg, CD-1 mice, read-out: Vss): 2.1 L/kg
half-life ([4]; female, mouse, plasma, iv, i.v. 5 mg/kg, CD-1 mice, read-out: t1/2 (i.v.) (converted)): 3.4 h
AUC(0-t) ([4]; female, mouse, plasma, oral 1.5 mg/kg, CD-1 mice, HCl/Solutol HS15/citrate pH 3 formulation): 1000 ng·h/mL
Cmax ([4]; female, mouse, plasma, oral 1.5 mg/kg, CD-1 mice, HCl/Solutol HS15/citrate pH 3 formulation, read-out: Cmax): 100 ng/mL
bioavailability ([4]; female, mouse, plasma, oral 1.5 mg/kg, CD-1 mice, HCl/Solutol HS15/citrate pH 3 formulation, read-out: F): 44%
Tmax ([4]; female, mouse, plasma, oral 1.5 mg/kg, CD-1 mice, HCl/Solutol HS15/citrate pH 3 formulation, read-out: Tmax): 1 h
half-life ([4]; female, mouse, plasma, oral 1.5 mg/kg, CD-1 mice, HCl/Solutol HS15/citrate pH 3 formulation, read-out: t1/2 (oral) (converted)): 8.7 h
AUC(0-t) ([4]; female, mouse, plasma, oral 5.6 mg/kg, CD-1 mice, HCl/Solutol HS15/citrate pH 3 formulation): 2600 ng·h/mL
Cmax ([4]; female, mouse, plasma, oral 5.6 mg/kg, CD-1 mice, HCl/Solutol HS15/citrate pH 3 formulation, read-out: Cmax): 250 ng/mL
bioavailability ([4]; female, mouse, plasma, oral 5.6 mg/kg, CD-1 mice, HCl/Solutol HS15/citrate pH 3 formulation, read-out: F): 32%
Tmax ([4]; female, mouse, plasma, oral 5.6 mg/kg, CD-1 mice, HCl/Solutol HS15/citrate pH 3 formulation, read-out: Tmax): 2 h
half-life ([4]; female, mouse, plasma, oral 5.6 mg/kg, CD-1 mice, HCl/Solutol HS15/citrate pH 3 formulation, read-out: t1/2 (oral) (converted)): 7.5 h
bioavailability ([4]; female, mouse, plasma, oral 25 mg/kg vs i.v. 5 mg/kg, CD-1 mice, read-out: F (oral bioavailability)): 100%
AUC(0-t) ([4]; female, mouse, plasma, oral 105 mg/kg, CD-1 mice, HCl/Solutol HS15/citrate pH 3 formulation): 187000 ng·h/mL
Cmax ([4]; female, mouse, plasma, oral 105 mg/kg, CD-1 mice, HCl/Solutol HS15/citrate pH 3 formulation, read-out: Cmax): 10800 ng/mL
bioavailability ([4]; female, mouse, plasma, oral 105 mg/kg, CD-1 mice, HCl/Solutol HS15/citrate pH 3 formulation, read-out: F): 100%
Tmax ([4]; female, mouse, plasma, oral 105 mg/kg, CD-1 mice, HCl/Solutol HS15/citrate pH 3 formulation, read-out: Tmax): 24 h
half-life ([4]; female, mouse, plasma, oral 105 mg/kg, CD-1 mice, HCl/Solutol HS15/citrate pH 3 formulation, read-out: t1/2 (oral) (converted)): 9.4 h
AUC(0-t) ([4]; female, mouse, plasma, single oral dose 25 mg/kg, CD-1 mice): 43300 ng·h/mL
Tmax ([4]; female, mouse, plasma, single oral dose 25 mg/kg, CD-1 mice, read-out: Tmax): 1 h
half-life ([4]; female, mouse, plasma, single oral dose 25 mg/kg, CD-1 mice, read-out: t1/2 (oral) (converted)): 10 h
Cmax ([4]; female, mouse, single oral dose 25 mg/kg, CD-1 mice, plasma, read-out: Cmax): 3600 ng/mL
CL ([4]; i.v. 5 mg/kg, CD-1 mice): 9.7 mL/min/kg
Dose linearity ([4]; oral 1.5–105 mg/kg, CD-1 mouse): nonlinear behavior
Slope, log dose vs log AUC0-24 (dose proportionality) [4, 13]: 1.30
Slope, log dose vs log Cmax (dose proportionality) [4, 13]: 1.18
Threshold (TRE), 2× the P. berghei IC99 [5]: 123 nM and 48 ng/ml
IC50 ([5]; Plasmodium berghei, read-out: IC50 against P. berghei in vitro): 0.01 µg/mL
IC50 ([5]; Plasmodium berghei, 16 h + 8 h incubation, read-out: IC50 (mean ± SD) for P. berghei GFP ANKA PbGFPCON (n = 3)): 0.026 ± 0.014 µM
IC99 in the ex vivo P. berghei maturation assay ([5]; four-parametric logistic fit, Bayesian hierarchical model): 61.6 nM
Threshold (TRE), 2 × P. falciparum IC99 [7]: 1 ng/mL
IC50 ([7]; Plasmodium falciparum, NF54): 0.0012 ± 0.0002 µM
Solubility ([8]; aqueous buffer, thermodynamic from solid): 39 µM (≈ 15.2 µg/mL)
